In patent publication US20180319753A1, “MICROBIOCIDAL OXADIAZOLE DERIVATIVES” (SYNGENTA PARTICIPATIONS AG, priority 2015, published 2018):
Several values for one entry are separate records, joined by “and”; a condition that tells them apart may be missing. Equal entries are not always repeated.

Legend:
[1] = tested on: Puccinia recondita f. Sp. Tritici; experiment: Puccinia recondita f. sp. tritici / wheat / leaf disc preventative (brown rust); assay type: in vivo; settings: foliar, 200 ppm in the applied formulation, wheat leaf segments cv. Kanzler, inoculated 1 day after application, assessed 7 to 9 days after application, read-out: disease control compared to untreated control leaf disks
Description: Leaf disks or leaf segments of various plant species are cut from plants grown in a greenhouse. The cut leaf disks or segments are placed in multiwell plates (24-well format) onto water agar. The leaf disks are sprayed with a test solution before (preventative) or after (curative) inoculation. Compounds to be tested are prepared as DMSO solutions (max. 10 mg/ml) which are diluted to the appropriate concentration with 0.025% Tween20 just before spraying. The inoculated leaf disks or segments are incubated under defined conditions (temperature, relative humidity, light, etc.) according to the respective test system. A single evaluation of disease level is carried out 3 to 14 days after inoculation, depending on the pathosystem. Percent disease control relative to the untreated check leaf disks or segments is then calculated. Wheat leaf segments cv. Kanzler were placed on agar in multiwell plates (24-well format) and sprayed with the formulated test compound diluted in water. The leaf disks were inoculated with a spore suspension of the fungus 1 day after application. The inoculated leaf segments were incubated at 19° C. and 75% relative humidity (rh) under a light regime of 12 hours light/12 hours darkness in a climate cabinet and the activity of a compound was assessed as percent disease control compared to untreated when an appropriate level of disease damage appears in untreated check leaf segments (7 to 9 days after application). The following compounds at 200 ppm in the applied formulation give at least 80% disease control in this test when compared to untreated control leaf disks under the same conditions, which show extensive disease development.

[2] = tested on: Puccinia recondita f. Sp. Tritici; experiment: Puccinia recondita f. sp. tritici / wheat / leaf disc curative (brown rust); assay type: in vivo; settings: foliar, 200 ppm in the applied formulation, wheat leaf segments cv. Kanzler, applied 1 day after inoculation, assessed 6 to 8 days after application, read-out: disease control compared to untreated control leaf disks
Description: (§1) Leaf disks or leaf segments of various plant species are cut from plants grown in a greenhouse. The cut leaf disks or segments are placed in multiwell plates (24-well format) onto water agar. The leaf disks are sprayed with a test solution before (preventative) or after (curative) inoculation. Compounds to be tested are prepared as DMSO solutions (max. 10 mg/ml) which are diluted to the appropriate concentration with 0.025% Tween20 just before spraying. The inoculated leaf disks or segments are incubated under defined conditions (temperature, relative humidity, light, etc.) according to the respective test system. A single evaluation of disease level is carried out 3 to 14 days after inoculation, depending on the pathosystem. Percent disease control relative to the untreated check leaf disks or segments is then calculated.
Wheat leaf segments cv. Kanzler are placed on agar in multiwell plates (24-well format). The leaf segments are then inoculated with a spore suspension of the fungus. Plates were stored in darkness at 19° C. and 75% relative humidity. The formulated test compound diluted in water was applied 1 day after inoculation. The leaf segments were incubated at 19° C. and 75% relative humidity under a light regime of 12 hours light/12 hours darkness in a climate cabinet and the activity of a compound was assessed as percent disease control compared to untreated when an appropriate level of disease damage appears in untreated check leaf segments (6 to 8 days after application).
(§2) The following compounds at 200 ppm in the applied formulation give at least 80% disease control in this test when compared to untreated control leaf disks under the same conditions, which show extensive disease development.

[3] = tested on: Phakopsora pachyrhizi; experiment: Phakopsora pachyrhizi / soybean / leaf disc preventative (Asian soybean rust); assay type: in vivo; settings: foliar, 200 ppm in the applied formulation, soybean leaf disks, inoculated one day after application, assessed 12 to 14 days after application, read-out: disease control compared to untreated control leaf disks
Description: as §1
Soybean leaf disks are placed on water agar in multiwell plates (24-well format) and sprayed with the formulated test compound diluted in water. One day after application leaf discs are inoculated by spraying a spore suspension on the lower leaf surface. After an incubation period in a climate cabinet of 24-36 hours in darkness at 20° C. and 75% rh leaf disc are kept at 20° C. with 12 h light/day and 75% rh. The activity of a compound is assessed as percent disease control compared to untreated when an appropriate level of disease damage appears in untreated check leaf disks (12 to 14 days after application).
as §2

[4] = tested on: Glomerella lagenarium (Colletotrichum lagenarium); experiment: Glomerella lagenarium (Colletotrichum lagenarium) liquid culture / cucumber / preventative (anthracnose); assay type: cell-based; settings: Colletotrichum orbiculare; 20 ppm in the applied formulation; liquid culture in PDB, 24° C.; 3 to 4 days after application; read-out: disease control compared to untreated control (inhibition of growth measured photometrically)
Description: Mycelia fragments or conidia suspensions of a fungus prepared either freshly from liquid cultures of the fungus or from cryogenic storage, are directly mixed into nutrient broth. DMSO solutions of the test compound (max. 10 mg/ml) are diluted with 0.025% Tween20 by a factor of 50 and 10 μl of this solution is pipetted into a microtiter plate (96-well format). The nutrient broth containing the fungal spores/mycelia fragments is then added to give an end concentration of the tested compound. The test plates are incubated in the dark at 24° C. and 96% relative humidity. The inhibition of fungal growth is determined photometrically after 2 to 7 days, depending on the pathosystem, and percent antifungal activity relative to the untreated check is calculated.
Conidia of the fungus from cryogenic storage are directly mixed into nutrient broth (PDB—potato dextrose broth). After placing a (DMSO) solution of test compound into a microtiter plate (96-well format), the nutrient broth containing the fungal spores is added. The test plates are incubated at 24° C. and the inhibition of growth is measured photometrically 3 to 4 days after application.
The following compounds at 20 ppm in the applied formulation give at least 80% disease control in this test when compared to untreated control under the same conditions, which show extensive disease development.

Compound | pest or weed control at 200 ppm [1] | pest or weed control at 200 ppm [2] | pest or weed control at 200 ppm [3] | inhibition at 20 ppm [4] | melting point
FC(F)(F)c1nc(-c2ccc(Sc3ccccc3)cc2)no1 [Compound 1.1, 3-(4-phenylsulfanylphenyl)-5-(trifluoromethyl)-1,2,4-oxadiazole] | ≥ 80% | ≥ 80% | ≥ 80% | ≥ 80% | 59 to 62 °C
FC(F)(F)c1nc(-c2ccc(SCCc3ccccc3)cc2)no1 [Compound 1.5, 3-[4-(2-phenylethylsulfanyl)phenyl]-5-(trifluoromethyl)-1,2,4-oxadiazole] | ≥ 80% | ≥ 80% | ≥ 80% | ≥ 80% | 
FC(F)(F)c1nc(-c2ccc(Sc3ccccc3)nc2)no1 [Compound 1.7, 3-(6-phenylsulfanyl-3-pyridyl)-5-(trifluoromethyl)-1,2,4-oxadiazole] |  | ≥ 80% | ≥ 80% | ≥ 80% | 124 to 129 °C
Fc1cccc(F)c1Sc1ccc(-c2noc(C(F)(F)F)n2)cc1 [Compound 1.12, 3-[4-(2,6-difluorophenyl)sulfanylphenyl]-5-(trifluoromethyl)-1,2,4-oxadiazole] |  | ≥ 80% | ≥ 80% | ≥ 80% | 75 to 85 °C
Fc1ccccc1Sc1ccc(-c2noc(C(F)(F)F)n2)cc1 [Compound 1.14, 3-[4-(2-fluorophenyl)sulfanylphenyl]-5-(trifluoromethyl)-1,2,4-oxadiazole] | ≥ 80% | ≥ 80% | ≥ 80% |  | 35 to 38 °C
Fc1ccccc1SCc1ccc(-c2noc(C(F)(F)F)n2)cc1 [Compound 1.15, 3-[4-[(2-fluorophenyl)sulfanylmethyl]phenyl]-5-(trifluoromethyl)-1,2,4-oxadiazole] |  | ≥ 80% | ≥ 80% |  | 56 to 61 °C
FC(F)(F)c1nc(-c2ccc(CSc3ccccc3)nc2)no1 [Compound 1.23, 3-[6-(phenylsulfanylmethyl)-3-pyridyl]-5-(trifluoromethyl)-1,2,4-oxadiazole] | ≥ 80% | ≥ 80% |  | ≥ 80% | 71 to 78 °C
[O-][S+](c1ccc(F)cc1)c1ccc(-c2noc(C(F)(F)F)n2)cc1 (stereo not drawn) [Compound 2.13, 3-[4-(4-fluorophenyl)sulfinylphenyl]-5-(trifluoromethyl)-1,2,4-oxadiazole] | ≥ 80% | ≥ 80% | ≥ 80% |  | 94 to 99 °C
COc1ccccc1[S+]([O-])c1ccc(-c2noc(C(F)(F)F)n2)cc1 (stereo not drawn) [Compound 2.15, 3-[4-(2-methoxyphenyl)sulfinyl-phenyl]-5-(trifluoromethyl)-1,2,4-oxadiazole] | ≥ 80% | ≥ 80% | ≥ 80% |  | 105 to 115 °C
CC(C)(C)[S+]([O-])c1ccc(-c2noc(C(F)(F)F)n2)cc1 (stereo not drawn) [Compound 2.19, 3-(4-tert-butylsulfinylphenyl)-5-(trifluoromethyl)-1,2,4-oxadiazole] | ≥ 80% | ≥ 80% | ≥ 80% | ≥ 80% | 
CCC(C)C[S+]([O-])c1ccc(-c2noc(C(F)(F)F)n2)cc1 (stereo not drawn) [Compound 2.22, 3-[4-(2-methylbutylsulfinyl)phenyl]-5-(trifluoromethyl)-1,2,4-oxadiazole] |  | ≥ 80% | ≥ 80% | ≥ 80% | 38 to 43 °C
[O-][S+](c1ccc(-c2noc(C(F)(F)F)n2)cc1)C1CCCC1 (stereo not drawn) [Compound 2.23, 3-(4-cyclopentylsulfinylphenyl)-5-(trifluoromethyl)-1,2,4-oxadiazole] | ≥ 80% | ≥ 80% | ≥ 80% | ≥ 80% | 
Cc1ccccc1[S+]([O-])c1ccc(-c2noc(C(F)(F)F)n2)cc1 (stereo not drawn) [Compound 2.24, 3-[4-(o-tolylsulfinyl)phenyl]-5-(trifluoromethyl)-1,2,4-oxadiazole] | ≥ 80% | ≥ 80% |  | ≥ 80% | 100 to 103 °C
[O-][S+](c1ccc(-c2noc(C(F)(F)F)n2)cn1)c1ccccc1F (stereo not drawn) [Compound 2.26, 3-[6-(2-fluorophenyl)sulfinyl-3-pyridyl]-5-(trifluoromethyl)-1,2,4-oxadiazole] | ≥ 80% | ≥ 80% |  | ≥ 80% | 92 to 95 °C
[O-][S+](Cc1c(F)cc(-c2noc(C(F)(F)F)n2)cc1F)c1ccccc1 (stereo not drawn) [Compound 2.32, 3-[4-(benzenesulfinylmethyl)-3,5-difluoro-phenyl]-5-(trifluoromethyl)-1,2,4-oxadiazole] |  | ≥ 80% | ≥ 80% | ≥ 80% | 120 to 125 °C
COc1ccc(S(=O)(=O)c2ccc(-c3noc(C(F)(F)F)n3)cc2)cc1 [Compound 3.2, 3-[4-(4-methoxyphenyl)sulfonylphenyl]-5-(trifluoromethyl)-1,2,4-oxadiazole] | ≥ 80% |  | ≥ 80% | ≥ 80% | 108 to 116 °C
O=S(=O)(c1ccccc1)c1ccc(-c2noc(C(F)(F)F)n2)cn1 [Compound 3.7, 3-[6-(benzenesulfonyl)-3-pyridyl]-5-(trifluoromethyl)-1,2,4-oxadiazole] | ≥ 80% |  | ≥ 80% | ≥ 80% | 124 to 127 °C and 124 to 129 °C
O=S(=O)(c1ccc(-c2noc(C(F)(F)F)n2)cc1)c1cccc(F)c1 [Compound 3.14, 3-[4-(3-fluorophenyl)sulfonylphenyl]-5-(trifluoromethyl)-1,2,4-oxadiazole] | ≥ 80% |  | ≥ 80% | ≥ 80% | 136 to 143 °C
